Legend:
BTK (C481S) = BTK (C481S) (Homo sapiens (Human), UniProt Q06187, C481S); assay: BTK C481S enzyme experiment (ADP-Glo kinase assay); format: biochemical; conditions: 10 nM BTK C481S, ATP 125 μM, Poly(Glu4, Tyr1), 90 minutes at 20° C.
Description: (§1) A 3-fold gradient concentration stock solution of 1000× compound was prepared using DMSO and diluted 100-fold to 10× compound stock solution using reaction buffer (50 mM HEPES, pH 7.5, 0.0015% Briji-35, 2 mM DTT, 10 mM MgCl2), and the 10× compound stock solution was transferred to a 384-well plate. Enzyme reactions were set up with BTK Kinase Enzyme System (Promega Catalog #V2941) or BTK (C481S) Kinase Enzyme System (Promega Catalog #VA7033). First, a 2× enzyme solution containing 10 nM BTK or 10 nM BTK C481S was prepared with reaction buffer and added to the plate, and incubated with the compound for 10 minutes. […] Finally, the kinase activity was detected according to the experimental steps provided by ADP-Glo™ kinase Assay Kit (Promega, #V9101), and finally the luminescence chemiluminescence value was read. DMSO was used as the maximum signal value, and adding no enzyme was used as the minimum signal value. The inhibition rate of the compound (%)=(maximum signal value−compound signal value)/(maximum signal value−minimum signal value)×100% was calculated. The compound gradient dilution concentration and the corresponding inhibition rate of the enzyme activity were fit by using XLFit four-parameter method, and IC50 value was calculated.

TMD-8 cells = assay: TMD-8 proliferation inhibition experiment; format: cell-based; conditions: human diffuse large B lymphoma cells, three days incubation
Description: TMD-8 cells are human diffuse large B lymphoma (Mingzhou Bio, MZ-0832), cultured in 10% FBS+1% PS 1640 medium; OCI-LY10 is human diffuse large B lymphoma (BeNa Culture Collection, BNCC337742), cultured in 10% FBS+1% PS IMDM. Day 1: Cells at logarithmic growth phase were taken, counted and inoculated 600 TMD-8 or 2000 OCI-LY10 cells in a 384-well cell culture plate and cultured overnight. Day 2: A 3-fold gradient concentration stock solution of 400× compound was prepared with DMSO, and diluted 40-fold to a 10× compound stock solution with culture medium. The 10× compound stock solution was added to each cell culture well with a final concentration of 1× compound stock solution and a DMSO content of 0.25%. DMSO was used as experimental control, and culture medium was used as blank control. The incubation was continued for three days after compound addition. On the fifth day, 25 μL of […] was added to each well, mixed well and incubated for 10 minutes, then the chemiluminescence value (RLU value) was read. The cell proliferation inhibition rate (%)=(RLUcontrol−RLUcompound)/(RLUcontrol−RLUblank)×100% was calculated. The compound gradient dilution concentration and the corresponding cell proliferation inhibition rate were fit by using XLFit four-parameter method, and IC50 value was calculated.

BTK = BTK (Homo sapiens (Human), UniProt Q06187); assay: BTK enzyme experiment (ADP-Glo kinase assay); format: biochemical; conditions: 10 nM BTK, ATP 125 μM, Poly(Glu4, Tyr1), 90 minutes at 20° C.; read-out: BTK(WT) IC50
Sequence of BTK (Q06187 whole entry): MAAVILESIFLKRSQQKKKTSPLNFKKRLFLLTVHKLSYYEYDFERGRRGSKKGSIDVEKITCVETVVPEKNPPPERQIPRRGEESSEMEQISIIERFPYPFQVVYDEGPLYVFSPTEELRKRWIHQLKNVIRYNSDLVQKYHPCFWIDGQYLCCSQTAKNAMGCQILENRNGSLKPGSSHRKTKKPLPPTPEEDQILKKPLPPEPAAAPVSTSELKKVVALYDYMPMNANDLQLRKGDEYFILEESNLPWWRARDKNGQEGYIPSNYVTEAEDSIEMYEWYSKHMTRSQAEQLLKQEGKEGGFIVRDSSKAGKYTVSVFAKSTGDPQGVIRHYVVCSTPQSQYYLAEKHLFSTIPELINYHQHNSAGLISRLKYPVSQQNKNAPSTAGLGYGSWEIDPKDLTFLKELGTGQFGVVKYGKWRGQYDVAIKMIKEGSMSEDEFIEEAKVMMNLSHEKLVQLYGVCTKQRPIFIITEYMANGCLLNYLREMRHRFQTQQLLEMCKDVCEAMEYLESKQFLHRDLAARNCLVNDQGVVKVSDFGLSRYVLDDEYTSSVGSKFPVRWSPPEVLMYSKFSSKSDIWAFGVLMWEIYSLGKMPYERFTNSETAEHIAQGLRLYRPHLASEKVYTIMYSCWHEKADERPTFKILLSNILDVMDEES
Description: as §1

Sequence of BTK (C481S) (Q06187 whole entry C481S): as the sequence (Q06187 whole entry) above, with C481S counted along it

O=C(c1ccc(Oc2ccccc2)cc1Cl)c1c[nH]c2ncc3c(c12)N[C@@]1(CCOC1)C(=O)N3 (single isomer, unassigned) [Z1-1] showed an IC50 (BTK (C481S)) of 23.6 nM, an IC50 (TMD-8 cells) of 183 nM and an IC50 (BTK) of 67.1 nM.
In the case of O=C(c1ccc(Oc2ccccc2)cc1Cl)c1c[nH]c2ncc3c(c12)N[C@]1(CCOC1)C(=O)N3 (single isomer, unassigned) [Z1-2], the IC50 (BTK (C481S)) is reported as 27.2 nM, the IC50 (TMD-8 cells) is reported as 232 nM and the IC50 (BTK) is reported as 64.7 nM.
For CC(=O)N1CC[C@@]2(C1)Nc1c(cnc3[nH]cc(C(=O)c4ccc(Oc5ccccc5)cc4Cl)c13)NC2=O (single isomer, unassigned) [Z4-2], the IC50 (BTK (C481S)) was 19.8 nM, the IC50 (TMD-8 cells) was 1200 nM and the IC50 (BTK) was 46.1 nM.
C[C@]1(CO)Nc2c(cnc3[nH]cc(C(=O)c4ccc(Oc5ccccc5)cc4Cl)c23)NC1=O (single isomer, unassigned) [Z9-1] was tested, and the IC50 (BTK (C481S)) was 20 nM, the IC50 (TMD-8 cells) was 389 nM and the IC50 (BTK) was 20 nM.
O=C(c1ccc(Oc2ccccc2)cc1Cl)c1c[nH]c2ncc3c(c12)N[C@@]1(CC[C@H](O)C1)C(=O)N3 (single isomer, unassigned) [Z24-1] showed an IC50 (BTK (C481S)) of 3.7 nM, an IC50 (TMD-8 cells) of 55.4 nM and an IC50 (BTK) of 3.5 nM.
In the case of O=C(c1ccc(Oc2ccccc2)cc1Cl)c1c[nH]c2ncc3c(c12)N[C@]1(CC[C@H](O)C1)C(=O)N3 (single isomer, unassigned) [Z24-2], the IC50 (BTK (C481S)) is reported as 4.7 nM, the IC50 (TMD-8 cells) is reported as 63.1 nM and the IC50 (BTK) is reported as 5 nM.
COC[C@]1(C)Nc2c(cnc3[nH]cc(C(=O)c4ccc(Oc5cc(C)nc(Cl)c5)cc4Cl)c23)NC1=O [Z135, (S)-9-(2-chloro-4-((2-chloro-6-methylpyridin-4-yl)oxy)benzoyl)-2-(methoxymethyl)-2-methyl-1,2,4,7-tetrahydro-3H-pyrrolo[3′,2′:5,6]pyrido[3,4-b]pyrazin-3-one] showed an IC50 (BTK (C481S)) of 88.8 nM and an IC50 (BTK) of 58.9 nM.
COCCN1C(=O)[C@](C)(COC)Nc2c1cnc1[nH]cc(C(=O)c3ccc(Oc4ccccc4)cc3Cl)c21 [Z142] gave an IC50 (BTK (C481S)) of 19.7 nM and an IC50 (BTK) of 35.2 nM.
Work on [2H]C([2H])([2H])OC[C@]1(C)Nc2c(cnc3[nH]cc(C(=O)c4ccc(Cn5cccn5)cc4Cl)c23)NC1=O [Z170, (S)-9-(4-((1H-pyrazol-1-yl)methyl)-2-chlorobenzoyl)-2-((methoxy-d3)methyl)-2-methyl-1,2,4,7-tetrahydro-3H-pyrrolo[3′,2′:5,6]pyrido[3,4-b]pyrazin-3-one] yielded an IC50 (BTK (C481S)) of 36.5 nM and an IC50 (BTK) of 28.4 nM.
In the case of [2H]C([2H])([2H])OC[C@]1(C)Nc2c(cnc3[nH]cc(C(=O)c4ccc(Cn5ccc(C)n5)cc4Cl)c23)NC1=O [Z174, (S)-9-(2-chloro-4-((3-methyl-1H-pyrazol-1-yl)methyl)benzoyl)-2-((methoxy-d3)methyl)-2-methyl-1,2,4,7-tetrahydro-3H-pyrrolo[3′,2′:5,6]pyrido[3,4-b]pyrazin-3-one], the IC50 (BTK (C481S)) is reported as 115 nM and the IC50 (BTK) is reported as 76.6 nM.
[2H]C([2H])([2H])OC[C@]1(C)Nc2c(cnc3[nH]cc(C(=O)c4ccc(Cn5nccc5C)cc4Cl)c23)NC1=O [Z175, (S)-9-(2-chloro-4-((5-methyl-1H-pyrazol-1-yl)methyl)benzoyl)-2-((methoxy-d3)methyl)-2-methyl-1,2,4,7-tetrahydro-3H-pyrrolo[3′,2′:5,6]pyrido[3,4-b]pyrazin-3-one] was tested, and the IC50 (BTK (C481S)) was 76.5 nM and the IC50 (BTK) was 74.4 nM.
[2H]C([2H])([2H])Oc1cccc(F)c1Oc1ccc(C(=O)c2c[nH]c3ncc4c(c23)N[C@@](C)(COC)C(=O)N4)c(Cl)c1 [Z187] showed an IC50 (TMD-8 cells; Homo sapiens, TMD8, 72 h) of 41.3 nM.
COC[C@]1(C)Nc2c(cnc3[nH]cc(C(=O)c4ccc(Oc5cc(C)cc(C)n5)cc4F)c23)NC1=O [Z189-1, (S)-9-(4-((4,6-dimethylpyridin-2-yl)oxy)-2-fluorobenzoyl)-2-(methoxymethyl)-2-methyl-1,2,4,7-tetrahydro-3H-pyrrolo[3′,2′:5,6]pyrido[3,4-b]pyrazin-3-one] gave an IC50 (BTK (C481S)) of 60.3 nM and an IC50 (BTK) of 50.4 nM.
[2H]C([2H])([2H])N1C(=O)[C@](C)(COC)Nc2c1cnc1[nH]cc(C(=O)c3ccc(Oc4ccccc4)cc3Cl)c21 [Z190, (S)-9-(2-chloro-4-phenoxybenzoyl)-2-(methoxymethyl)-2-methyl-4-(methyl-d3)-1,2,4,7-tetrahydro-3H-pyrrolo[3′,2′:5,6]pyrido[3,4-b]pyrazin-3-one] showed an IC50 (BTK (C481S)) of 20.1 nM and an IC50 (BTK) of 16.3 nM.
Work on [2H]C([2H])([2H])OC[C@]1(C)Nc2c(cnc3[nH]cc(C(=O)c4ccc(Oc5ccccc5)cc4Cl)c23)N(C([2H])([2H])[2H])C1=O [Z193, (S)-9-(2-chloro-4-phenoxybenzoyl)-2-((methoxy-d3)methyl)-2-methyl-4-(methyl-d3)-1,2,4,7-tetrahydro-3H-pyrrolo[3′,2′:5,6]pyrido[3,4-b]pyrazin-3-one] yielded an IC50 (BTK (C481S)) of 21.9 nM and an IC50 (BTK) of 19.1 nM.
COC[C@]1(C)Nc2c(cnc3[nH]cc(C(=O)c4ccc(OC)c(F)c4Cl)c23)NC1=O [Z194, (S)-9-(2-chloro-3-fluoro-4-methoxybenzoyl)-2-(methoxymethyl)-2-methyl-1,2,4,7-tetrahydro-3H-pyrrolo[3′,2′:5,6]pyrido[3,4-b]pyrazin-3-one] showed an IC50 (BTK (C481S)) of 77.4 nM and an IC50 (BTK) of 47.3 nM.
COC[C@]1(C)Nc2c(cnc3[nH]cc(C(=O)c4c(F)cccc4Cl)c23)NC1=O [Z196, (S)-9-(2-chloro-6-fluorobenzoyl)-2-(methoxymethyl)-2-methyl-1,2,4,7-tetrahydro-3H-pyrrolo[3′,2′:5,6]pyrido[3,4-b]pyrazin-3-one] was tested, and the IC50 (BTK (C481S)) was 25.8 nM and the IC50 (BTK) was 26.4 nM.
For CC1(C)COc2cnc3[nH]cc(C(=O)c4ccccc4Cl)c3c2N1 [Z198, (2-chlorophenyl)(2,2-dimethyl-1,2,3,7-tetrahydropyrrolo[3′,2′:5,6]pyrido[3,4-b][1,4]oxazin-9-yl)methanone], the IC50 (BTK (C481S)) was 15.1 nM and the IC50 (BTK) was 17.4 nM.
With COC[C@]1(C)Nc2c(cnc3[nH]cc(C(=O)c4ccccc4Cl)c23)N=C1SC [Z199, (S)-(2-chlorophenyl)(2-(methoxymethyl)-2-methyl-3-(methylthio)-2,7-dihydro-1H-pyrrolo[3′,2′:5,6]pyrido[3,4-b]pyrazin-9-yl)methanone] the IC50 (BTK (C481S)) was 23.2 nM and the IC50 (BTK) was 42.6 nM.
COC[C@]1(C)Nc2c(cnc3[nH]cc(C(=O)c4ccccc4Cl)c23)N=C1OC [Z200, (S)-(2-chlorophenyl)(3-methoxy-2-(methoxymethyl)-2-methyl-2,7-dihydro-1H-pyrrolo[3′,2′:5,6]pyrido[3,4-b]pyrazin-9-yl)methanone] was tested, and the IC50 (BTK (C481S)) was 9.9 nM and the IC50 (BTK) was 18.8 nM.
COC[C@]1(C)Nc2c(cnc3[nH]cc(C(=O)c4ccc(Oc5ccccc5)cc4Cl)c23)N=C1SC [Z201, (S)-(2-chloro-4-phenoxyphenyl)(2-(methoxymethyl)-2-methyl-3-(methylthio)-2,7-dihydro-1H-pyrrolo[3′,2′:5,6]pyrido[3,4-b]pyrazin-9-yl)methanone] showed an IC50 (BTK (C481S)) of 215 nM and an IC50 (BTK) of 122 nM.
COC[C@]1(C)Nc2c(cnc3[nH]cc(C(=O)c4ccc(Oc5ccccc5)cc4Cl)c23)NC1=S [Z202, (S)-(2-chloro-4-phenoxyphenyl)(2-(methoxymethyl)-2-methyl-3-thioxo-2,3,4,7-tetrahydro-1H-pyrrolo[3′,2′:5,6]pyrido[3,4-b]pyrazin-9-yl)methanone] showed an IC50 (BTK (C481S)) of 27.8 nM and an IC50 (BTK) of 23.8 nM.
With CCSC1=Nc2cnc3[nH]cc(C(=O)c4ccc(Oc5ccccc5)cc4Cl)c3c2N[C@@]1(C)COC [Z203, (S)-(2-chloro-4-phenoxyphenyl)(3-(ethylthio)-2-(methoxymethyl)-2-methyl-2,7-dihydro-1H-pyrrolo[3′,2′:5,6]pyrido[3,4-b]pyrazin-9-yl)methanone] the IC50 (BTK (C481S)) was 142 nM and the IC50 (BTK) was 75.1 nM.

— US20240360154A1, “AROYL SUBSTITUTED TRICYCLIC COMPOUND, PREPARATION METHOD THEREFOR AND USE THEREOF” (GENFLEET THERAPEUTICS (SHANGHAI) INC., priority 2020, published 2024)
